The results in this text go back to US11919902B2, “Aryl-bipyridine amine derivatives as phosphatidylinositol phosphate kinase inhibitors” (HiberCell, Inc., priority 2017, dated 2024).

This experiment deals with T1, PIP4K2A (full length protein, SignalChem) (Homo sapiens, UniProt P48426).
T1 construct: 4 nM PIP4K2A (full length protein, SignalChem); purchased SignalChem
T1 sequence (P48426 1-406): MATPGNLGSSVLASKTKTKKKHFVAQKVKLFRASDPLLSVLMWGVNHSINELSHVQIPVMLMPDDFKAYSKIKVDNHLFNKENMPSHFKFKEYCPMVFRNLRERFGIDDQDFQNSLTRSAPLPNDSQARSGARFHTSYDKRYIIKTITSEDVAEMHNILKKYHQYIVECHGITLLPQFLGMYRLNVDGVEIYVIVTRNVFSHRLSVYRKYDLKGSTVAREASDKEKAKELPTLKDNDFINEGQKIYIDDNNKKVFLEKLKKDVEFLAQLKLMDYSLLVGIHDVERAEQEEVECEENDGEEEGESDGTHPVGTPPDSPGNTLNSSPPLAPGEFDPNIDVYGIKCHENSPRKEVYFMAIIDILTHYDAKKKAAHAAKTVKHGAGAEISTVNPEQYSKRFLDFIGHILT
In words: Kinase Assay PIP4K2 A (Sprint); ADP-Glo biochemical assay. The following applies: Table 2; compounds listed under IC50 range headings. The procedure: Dilution series of the compounds were prepared in DMSO at 100 times the final assay concentration (n1=n0/3 in 10 points). The compounds were further diluted to three times the assay concentration in assay buffer (20 mM MOPS pH 7.2, 25 mM magnesium chloride, 0.005% Tween 20). 6 μL of the diluted compounds were added to a 384 well assay plate followed by 9 μL of a mix consisting of 4 nM PIP4K2A (full length protein, SignalChem) and 100 μM PI(5)P diC8 (Tebu-Bio). Enzyme and compounds were pre-incubated at room temperature for 15 min.
Then 3 μL of a solution containing 60 μM ATP (Promega) in assay buffer was added to the wells containing compound and enzyme and mixing was performed by pipetting several times. The reaction was incubated at room temperature for 1 h. Then 18 μL of ADP-Glo™ Reagent (Promega) was added to stop the kinase reaction and deplete the unconsumed ATP, mixing was performed by pipetting several times. The plate was incubated at room temperature for 40 min before addition of 36 μL of Kinase Detection Reagent (Promega) to convert ADP to ATP and introduce luciferase and luciferin to detect ATP. The reaction was incubated at room temperature for 40 min before the luminescence was measured in a in a Victor 3V 1420 multilabel counter (Perkin Elmer).
Percent inhibition of the compounds as compared to dimethyl sulfoxide treated control samples was calculated. Compound concentration versus percent inhibition were fitted to generate IC50 values.
(ADP-Glo first removes unused ATP, then detects ADP through luciferase.)

A value given as a limit tells only on which side of the number the result lay.

In general, IC50 refers to the midpoint of a concentration-inhibition curve. Read a low IC50 as inhibition by little substance. With `CN(C)C(=O)c1ccc(-c2cncc(-c3cncc(-c4ccnc5[nH]ccc45)c3)c2)cc1` [Example 3, 4-(5′-(H-pyrrolo[2,3-b]pyridin-4-yl)-[3,3′-bipyridin]-5-yl)-N,N-dimethylbenzamide], the IC50 was in the range of 100 to 1000 nM.
As for `CN(C)C(=O)c1ccc(-c2cncc(-c3ccnc(C(C)(C)O)c3)c2)cc1` [Example 8, 4-(2′-(2-hydroxypropan-2-yl)-[3,4′-bipyridin]-5-yl)-N,N-dimethylbenzamide], the figure is 1000 to 2500 nM.
Under `CN(C)C(=O)c1ccc(-c2cc(-c3ccncc3)cnc2N)cc1` [Example 16, 4-(6-amino-[3,4′-bipyridin]-5-yl)-N,N-dimethylbenzamide] stands less than 5000 nM; under `CN(C)C(=O)c1ccc(-c2cc(-c3ccc(=O)[nH]c3)cnc2N)cc1` [Example 17, 4-(6-amino-6′-oxo-1′,6′-dihydro-[3,3′-bipyridin]-5-yl)-N,N-dimethylbenzamide], less than 5000 nM.
In turn, `CN(C)C(=O)c1ccc(-c2cc(C3=CCOCC3)cnc2N)cc1` [Example 18, 4-(2-amino-5-(3,6-dihydro-2H-pyran-4-yl)pyridin-3-yl)-N,N-dimethylbenzamide] returned an IC50 of less than 5000 nM.
As for `CN(C)C(=O)c1ccc(-c2cc(-c3ccncc3)cnc2N)nc1` [Example 19, 2′-amino-N,N-dimethyl-[2,3′:5′,4″-terpyridine]-5-carboxamide], the figure is 100 to 1000 nM; as for `Cc1c(-c2ccncc2)cncc1-c1ccc(N2CCCC2=O)cc1` [Example 82, 1-(4-(4-methyl-[3,4′-bipyridin]-5-yl)phenyl)pyrrolidin-2-one], 100 to 1000 nM; as for `Nc1ncc(-c2ccnc3oc(C(=O)NC4COC4)cc23)cc1-c1ccc(N2CCCC2=O)cc1` [Example 93, 4-(6-amino-5-(4-(2-oxopyrrolidin-1-yl)phenyl)pyridin-3-yl)-N-(oxetan-3-yl)furo[2,3-b]pyridine-2-carboxamide], 5 to 100 nM.
Under `COC(=O)c1cc2c(-c3cnc(N)c(-c4ccc(N5CCCC5=O)cc4)c3)ccnc2[nH]1` [Example 94, methyl 4-(6-amino-5-(4-(2-oxopyrrolidin-1-yl)phenyl)pyridin-3-yl)-1H-pyrrolo[2,3-b]pyridine-2-carboxylate] stands 100 to 1000 nM.
Take `Nc1ncc(-c2ccnc3c2CNC3=O)cc1-c1ccc(N2CCCC2=O)cc1` [Example 95, 4-(6-amino-5-(4-(2-oxopyrrolidin-1-yl)phenyl)pyridin-3-yl)-5,6-dihydro-7H-pyrrolo[3,4-b]pyridin-7-one]: the IC50 was in the range of 1 to 5 nM.
On to `CN(C)C(=O)c1ccc(-c2cc(-c3ccnc4ccc(C#N)cc34)cnc2N)nc1` [Example 100, 2′-Amino-5′-(6-cyanoquinolin-4-yl)-N,N-dimethyl-[2,3′-bipyridine]-5-carboxamide], for which the IC50 lay in the range of 100 to 1000 nM.
Regarding `CN(C)C(=O)c1ccc(-c2cc(-c3ccnc(C(C)(C)O)c3)cnc2N)nc1` [Example 101, 2′-Amino-2″-(2-hydroxypropan-2-yl)-N,N-dimethyl-[2,3′:5′,4″-terpyridine]-5-carboxamide], the IC50 fell in the range of 1000 to 2500 nM.
In the case of `CN(C)C(=O)c1ccc(-c2cc(-c3ccnc(C(C)(C)C#N)c3)cnc2N)nc1` [Example 102, 2′-Amino-2″-(2-cyanopropan-2-yl)-N,N-dimethyl-[2,3′:5′,4″-terpyridine]-5-carboxamide], the IC50 lay in the range of 1000 to 2500 nM.
Under `CN(C)C(=O)c1ccc(-c2cc(-c3ccnc(C4(C#N)CC4)c3)cnc2N)nc1` [Example 103, 2′-amino-2″-(1-cyanocyclopropyl)-N,N-dimethyl-[2,3′:5′,4″-terpyridine]-5-carboxamide] stands 100 to 1000 nM.
As to `CN(C)C(=O)c1ccc(-c2cc(-c3ccnc4occc34)cnc2N)nc1` [Example 104, 2′-amino-5′-(furo[2,3-b]pyridin-4-yl)-N,N-dimethyl-[2,3′-bipyridine]-5-carboxamide], the IC50 lay in the range of 100 to 1000 nM.
As for `CN(C)C(=O)c1ccc(-c2cc(-c3ccnc4c3ccn4C)cnc2N)nc1` [Example 105, 2′-amino-N,N-dimethyl-5′-(1-methyl-1H-pyrrolo[2,3-b]pyridin-4-yl)-[2,3′-bipyridine]-5-carboxamide], the figure is 100 to 1000 nM; as for `CN(C)C(=O)c1ccc(-c2cc(-c3ccnc(C(C)(C)C)c3)cnc2N)nc1` [Example 106, 2′-amino-2″-(tert-butyl)-N,N-dimethyl-[2,3′:5′,4″-terpyridine]-5-carboxamide], 1000 to 2500 nM.
Under `CN(C)C(=O)c1ccc(-c2cc(-c3ccnc(C#N)c3)cnc2N)nc1` [Example 107, 2′-amino-2″-cyano-N,N-dimethyl-[2,3′:5′,4″-terpyridine]-5-carboxamide] stands 1000 to 2500 nM; under `CN(C)C(=O)c1ccc(-c2cc(-c3ccnnc3)cnc2N)nc1` [Example 108, 2′-amino-N,N-dimethyl-5′-(pyridazin-4-yl)-[2,3′-bipyridine]-5-carboxamide], 2500 to 5000 nM.
`CN(C)C(=O)c1ccc(-c2cc(-c3ccnc4ccncc34)cnc2N)nc1` [Example 112, 2′-amino-N,N-dimethyl-5′-(1,6-naphthyridin-4-yl)-[2,3′-bipyridine]-5-carboxamide] returned an IC50 of 1000 to 2500 nM.
Compound `CN(C)C(=O)c1ccc(-c2cc(-c3cccnc3)cnc2N)nc1` [Example 119, 2′-amino-N,N-dimethyl-[2,3′:5′,3″-terpyridine]-5-carboxamide] displayed an IC50 of less than 5000 nM.
As for `Cn1cc(-c2cncc(-c3ccc(N4CCCC4=O)cc3)c2)c2cc(C(C)(C)O)cnc21` [Example 154, 1-(4-(5-(5-(2-hydroxypropan-2-yl)-1-methyl-1H-pyrrolo[2,3-b]pyridin-3-yl)pyridin-3-yl)phenyl)pyrrolidin-2-one], the figure is less than 5000 nM; as for `COC(C)(C)c1cnc2c(c1)c(-c1cncc(-c3ccc(N4CCCC4=O)cc3)c1)cn2C` [Example 155, 1-(4-(5-(5-(2-methoxypropan-2-yl)-1-methyl-1H-pyrrolo[2,3-b]pyridin-3-yl)pyridin-3-yl)phenyl)pyrrolidin-2-one], less than 5000 nM.
As for `COc1ncc(-c2cncc(-c3ccc(N4CCCC4=O)cc3)c2)c2cnn(C)c12` [Example 156, 1-(4-(5-(7-methoxy-1-methyl-1H-pyrazolo[3,4-c]pyridin-4-yl)pyridin-3-yl)phenyl)pyrrolidin-2-one], the figure is less than 5000 nM.
As for `CN(C)C/C=C/C(=O)Nc1ccc(C(=O)NCc2cc(-c3cnc(N)c(-c4ccc(C(=O)N(C)C)cn4)c3)ccn2)cc1` [Example 189, (E)-2′-amino-2″-((4-(4-(dimethylamino)but-2-enamido)benzamido)methyl)-N,N-dimethyl-[2,3′:5′,4″-terpyridine]-5-carboxamide], the figure is 1000 to 2500 nM; as for `CN(C)C/C=C/C(=O)Nc1cccc(C(=O)NCc2cc(-c3cnc(N)c(-c4ccc(C(=O)N(C)C)cn4)c3)ccn2)c1` [Example 192, (E)-2′-amino-2″-((3-(4-(dimethylamino)but-2-enamido)benzamido)methyl)-N,N-dimethyl-[2,3′:5′,4″-terpyridine]-5-carboxamide], 1000 to 2500 nM.
Regarding `CN(C)C(=O)c1ccc(-c2cc(-c3ccnc4[nH]ncc34)cnc2N)nc1` [Example 212, 2′-amino-N,N-dimethyl-5′-(2H-pyrazolo[3,4-b]pyridin-4-yl)-[2,3′-bipyridine]-5-carboxamide], the IC50 lay within 5 to 100 nM.
As for `O=C1CCCN1c1ccc(-c2cncc(-c3c4n(c5ncccc35)CCC4)c2)cc1` [Example 299, 1-(4-(5-(7,8-dihydro-6H-pyrido[3,2-b]pyrrolizin-5-yl)pyridin-3-yl)phenyl)pyrrolidin-2-one], the figure is 5 to 100 nM.
